Values after ≈ are worked out from the molar mass of the structure shown.
Experiments:
[1] = Solubility test of BD in SBECD and Tween 80 solutions; format: physicochemical
Method: Solubility test to investigate the solubilizing effect of SBECD and Tween 80 as solubilizers on BD, and to investigate the solubility of BD at different concentrations.
Investigation of the solubility of BD under different concentrations of SBECD: Weigh 0.1 g, 0.3 g, 0.5 g, and 1.0 g of […] into a 10 ml EP tube, add 10 ml of pure water, and shake until the […] is completely dissolved, then add excess BD (about 500 mg/100 mL), and wrap the EP tube in tin foil to protect from light. After protecting from light, place the EP tube on a shaker, shake for 24 hours, and centrifuge to collect the supernatant.

[2] = background statement; cited from earlier work

CCCC1O[C@@H]2C[C@H]3[C@@H]4CCC5=CC(=O)C=C[C@]5(C)[C@H]4[C@@H](O)C[C@]3(C)[C@]2(C(=O)CO)O1 (stereo partly drawn) [BD, 11β,21-dihydroxy-16α,17α-(butylidenebis(oxy))pregna-1,4-diene-3,20-dione]
BD Solubility ([1]; SBECD concentration 1%): 16.91 mg/100 ml
BD Solubility ([1]; SBECD concentration 3%): 40.28 mg/100 ml
BD Solubility ([1]; SBECD concentration 5%): 61.91 mg/100 ml
BD Solubility ([1]; SBECD concentration 10%): 81.3 mg/100 ml
BD Solubility ([1]; Tween 80 concentration 5 mg/100 ml): 0.224 mg/100 ml
BD Solubility ([1]; Tween 80 concentration 10 mg/100 ml): 0.256 mg/100 ml
BD Solubility ([1]; Tween 80 concentration 20 mg/100 ml): 0.292 mg/100 ml
BD Solubility ([1]; Tween 80 concentration 1%): 16.54 mg/100 ml
BD Solubility ([1]; Tween 80 concentration 3%): 38.88 mg/100 ml
BD Solubility ([1]; Tween 80 concentration 5%): 64.84 mg/100 ml
BD Solubility ([1]; Tween 80 concentration 10%): 118.79 mg/100 ml
solubility at 24 h ([1]; Tween 80 solution in water, aqueous with cosolvent or surfactant or cyclodextrin, thermodynamic from solid, Tween 80 concentration 20 mg/100 ml): 2.92 µg/mL (≈ 6.78 µM)

COc1ccc(CC(C)(C)NC[C@H](O)c2cc(O)cc3c2OCC(=O)N3)cc1 [Olodaterol, 6-hydroxy-8-[(1R)-1-hydroxy-2-{[1-(4-methoxyphenyl)-2-methylpropan-2-yl]amino}ethyl]-3,4-dihydro-2H-1,4-benzoxazin-3-one]
half-life [2]: more than 12 h
maintains bronchiectatic activity for [2]: 24 h
